Patent publication US10670605B2, “Cysteine reactive probes and uses thereof” (The Scripps Research Institute, priority 2015, dated 2020)
One block for each compound: values may come before it.

Assays:
Test in all cases: Competitive isoTOP-ABPP, cell lysates;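 for isoTOP-ABPP reactivity profile ratio, P09211 C48: Heavy/light ratio DMSO over fragment-treated so higher means more cysteine engagement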;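 for isoTOP-ABPP reactivity profile ratio, Q15084 C190: Heavy/light ratio DMSO over fragment-treated so higher means more cysteine engagement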
Format in all cases: binding
GSTP1 C48 (P09211) = GSTP1 C48 (P09211) (Homo sapiens, UniProt P09211); settings: for isoTOP-ABPP ratio, P09211_C48: 500 μM, invitro;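 for isoTOP-ABPP reactivity profile ratio, P09211 C48: Heavy/light ratio DMSO over fragment-treated so higher means more cysteine engagement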
DCUN1D1 C115 (Q96GG9) = DCUN1D1 C115 (Q96GG9) (Homo sapiens, UniProt Q96GG9); settings: for isoTOP-ABPP reactivity ratio, Q96GG9_C115: 500 μm, in-vitro_ramos; for isoTOP-ABPP ratio, Q96GG9_C115: 500 μM, invitro
PDIA6 C190 (Q15084) = target: T1, PDIA6 C190 (Q15084) (Homo sapiens, UniProt Q15084);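 for isoTOP-ABPP reactivity profile ratio, Q15084 C190: Heavy/light ratio DMSO over fragment-treated so higher means more cysteine engagement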
T1 sequence (Q15084 20-440): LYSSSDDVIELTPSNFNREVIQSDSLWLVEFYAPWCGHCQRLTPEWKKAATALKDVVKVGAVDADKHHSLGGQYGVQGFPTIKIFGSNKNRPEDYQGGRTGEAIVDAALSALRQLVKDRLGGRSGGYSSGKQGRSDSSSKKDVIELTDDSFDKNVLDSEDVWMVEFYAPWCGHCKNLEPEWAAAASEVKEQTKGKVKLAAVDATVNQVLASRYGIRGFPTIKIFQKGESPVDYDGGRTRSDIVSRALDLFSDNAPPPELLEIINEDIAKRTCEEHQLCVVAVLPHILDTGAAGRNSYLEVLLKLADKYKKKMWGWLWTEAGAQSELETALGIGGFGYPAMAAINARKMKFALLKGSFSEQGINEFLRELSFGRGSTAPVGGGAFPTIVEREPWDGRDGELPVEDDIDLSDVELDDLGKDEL

XPO1 C34 (O14980) = XPO1 C34 (O14980) (Homo sapiens, UniProt O14980); settings: for isoTOP-ABPP ratio, O14980_C34: 500 μM, invitro
PRMT1 C109 (Q99873) = PRMT1 C109 (Q99873) (Homo sapiens, UniProt Q99873); settings: for isoTOP-ABPP ratio, Q99873_C109: 500 μM, invitro
GNB2L1 C182 (P63244) = GNB2L1 C182 (P63244) (Homo sapiens, UniProt P63244); settings: for isoTOP-ABPP reactivity ratio, P63244_C182: 500 μm; for isoTOP-ABPP ratio, P63244_C182: 500 μM, invitro
PDE12 C108 (Q6L8Q7) = target: T2, PDE12 C108 (Q6L8Q7) (Homo sapiens, UniProt Q6L8Q7)
T2 sequence (Q6L8Q7 43-609): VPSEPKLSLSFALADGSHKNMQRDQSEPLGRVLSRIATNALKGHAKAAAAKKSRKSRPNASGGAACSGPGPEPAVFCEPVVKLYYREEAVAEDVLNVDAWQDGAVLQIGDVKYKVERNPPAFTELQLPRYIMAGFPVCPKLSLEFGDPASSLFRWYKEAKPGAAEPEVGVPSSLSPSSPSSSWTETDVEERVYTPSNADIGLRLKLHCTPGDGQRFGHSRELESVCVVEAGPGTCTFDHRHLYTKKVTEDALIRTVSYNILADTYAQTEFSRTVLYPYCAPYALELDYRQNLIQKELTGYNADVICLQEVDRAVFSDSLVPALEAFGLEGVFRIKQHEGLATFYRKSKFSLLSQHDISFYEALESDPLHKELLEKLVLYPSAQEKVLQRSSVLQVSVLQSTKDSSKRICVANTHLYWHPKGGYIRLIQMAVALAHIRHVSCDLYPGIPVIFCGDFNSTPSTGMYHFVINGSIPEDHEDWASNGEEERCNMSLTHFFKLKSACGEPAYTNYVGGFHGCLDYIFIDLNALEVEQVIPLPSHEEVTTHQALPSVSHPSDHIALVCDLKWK

MGMT C150 (P16455) = target: T3, MGMT C150 (P16455) (Homo sapiens, UniProt P16455); settings: for isoTOP-ABPP reactivity ratio, P16455_C150: 500 μm, in-vitro_ramos; for isoTOP-ABPP ratio (reactivity profile), P16455_C150: 500 μm in-vitro ramos
T3 sequence (P16455 1-207): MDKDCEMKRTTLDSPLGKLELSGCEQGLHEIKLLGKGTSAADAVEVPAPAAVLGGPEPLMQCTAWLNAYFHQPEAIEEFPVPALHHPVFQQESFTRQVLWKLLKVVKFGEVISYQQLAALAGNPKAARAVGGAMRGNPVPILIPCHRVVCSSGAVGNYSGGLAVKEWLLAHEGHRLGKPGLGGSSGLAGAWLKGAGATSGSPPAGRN

ZNF217 C286 (O75362) = ZNF217 C286 (O75362) (Homo sapiens, UniProt O75362); settings: for isoTOP-ABPP ratio (reactivity profile), O75362_C286: 500 μm in-vitro ramos_231
Sequence of ZNF217 C286 (O75362) (O75362 whole entry): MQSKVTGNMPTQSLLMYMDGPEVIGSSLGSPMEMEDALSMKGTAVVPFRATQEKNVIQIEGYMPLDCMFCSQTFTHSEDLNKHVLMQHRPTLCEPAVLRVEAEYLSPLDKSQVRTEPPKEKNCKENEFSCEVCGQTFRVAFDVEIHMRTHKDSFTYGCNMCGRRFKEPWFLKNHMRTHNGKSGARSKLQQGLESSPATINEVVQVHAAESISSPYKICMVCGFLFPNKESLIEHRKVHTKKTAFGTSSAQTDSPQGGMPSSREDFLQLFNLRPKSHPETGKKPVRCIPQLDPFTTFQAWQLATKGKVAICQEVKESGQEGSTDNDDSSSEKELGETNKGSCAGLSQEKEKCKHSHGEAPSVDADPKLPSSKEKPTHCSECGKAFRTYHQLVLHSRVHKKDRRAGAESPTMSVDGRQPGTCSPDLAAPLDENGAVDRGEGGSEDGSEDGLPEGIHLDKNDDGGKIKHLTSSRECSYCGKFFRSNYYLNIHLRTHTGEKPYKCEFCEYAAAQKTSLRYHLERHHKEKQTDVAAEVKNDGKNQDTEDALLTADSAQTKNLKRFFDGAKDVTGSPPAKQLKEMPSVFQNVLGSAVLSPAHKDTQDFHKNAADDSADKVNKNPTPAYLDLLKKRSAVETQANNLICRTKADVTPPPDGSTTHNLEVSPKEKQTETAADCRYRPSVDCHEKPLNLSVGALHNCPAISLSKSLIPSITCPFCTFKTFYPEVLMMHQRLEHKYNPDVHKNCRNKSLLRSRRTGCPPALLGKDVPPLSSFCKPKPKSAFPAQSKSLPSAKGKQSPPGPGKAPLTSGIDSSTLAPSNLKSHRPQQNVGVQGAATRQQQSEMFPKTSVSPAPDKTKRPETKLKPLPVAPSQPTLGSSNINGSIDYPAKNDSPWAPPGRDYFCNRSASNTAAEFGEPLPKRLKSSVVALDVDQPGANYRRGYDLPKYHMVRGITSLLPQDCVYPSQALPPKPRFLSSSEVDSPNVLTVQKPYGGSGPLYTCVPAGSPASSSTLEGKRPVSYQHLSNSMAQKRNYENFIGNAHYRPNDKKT

Sequence of XPO1 C34 (O14980) (O14980 whole entry): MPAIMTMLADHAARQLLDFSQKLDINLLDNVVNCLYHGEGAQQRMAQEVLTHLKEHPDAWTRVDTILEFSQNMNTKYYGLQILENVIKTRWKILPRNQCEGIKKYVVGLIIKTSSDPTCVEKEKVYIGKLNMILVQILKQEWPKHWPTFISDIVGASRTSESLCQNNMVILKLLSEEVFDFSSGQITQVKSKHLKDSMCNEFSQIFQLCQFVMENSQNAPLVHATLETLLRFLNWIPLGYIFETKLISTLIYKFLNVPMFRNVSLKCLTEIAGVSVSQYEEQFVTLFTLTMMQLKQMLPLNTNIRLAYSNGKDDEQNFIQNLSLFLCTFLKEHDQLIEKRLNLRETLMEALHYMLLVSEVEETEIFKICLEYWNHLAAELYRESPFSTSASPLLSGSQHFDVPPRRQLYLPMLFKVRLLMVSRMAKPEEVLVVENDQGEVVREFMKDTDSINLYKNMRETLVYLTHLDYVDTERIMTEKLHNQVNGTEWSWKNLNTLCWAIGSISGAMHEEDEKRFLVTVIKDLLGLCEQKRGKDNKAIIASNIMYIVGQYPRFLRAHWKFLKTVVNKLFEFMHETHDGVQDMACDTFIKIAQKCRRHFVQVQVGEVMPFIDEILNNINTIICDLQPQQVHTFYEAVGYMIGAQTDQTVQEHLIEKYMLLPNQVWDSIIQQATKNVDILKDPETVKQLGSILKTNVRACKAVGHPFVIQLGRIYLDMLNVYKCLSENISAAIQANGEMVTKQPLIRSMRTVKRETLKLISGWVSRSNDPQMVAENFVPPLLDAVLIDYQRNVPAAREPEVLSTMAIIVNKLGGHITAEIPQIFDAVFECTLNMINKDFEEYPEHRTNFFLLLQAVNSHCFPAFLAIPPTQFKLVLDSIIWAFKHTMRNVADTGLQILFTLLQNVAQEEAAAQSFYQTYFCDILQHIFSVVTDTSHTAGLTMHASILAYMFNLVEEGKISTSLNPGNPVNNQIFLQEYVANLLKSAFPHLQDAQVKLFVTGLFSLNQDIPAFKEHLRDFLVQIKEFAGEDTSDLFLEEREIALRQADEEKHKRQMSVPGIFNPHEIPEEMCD
Sequence of GSTP1 C48 (P09211) (P09211 whole entry, the tested form may be a part): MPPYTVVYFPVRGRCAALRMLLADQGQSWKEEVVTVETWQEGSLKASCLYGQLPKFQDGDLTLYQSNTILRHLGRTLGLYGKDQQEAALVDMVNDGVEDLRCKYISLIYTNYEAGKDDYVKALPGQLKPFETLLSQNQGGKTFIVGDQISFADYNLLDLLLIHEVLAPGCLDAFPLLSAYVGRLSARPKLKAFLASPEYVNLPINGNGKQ
Sequence of DCUN1D1 C115 (Q96GG9) (Q96GG9 whole entry, the tested form may be a part): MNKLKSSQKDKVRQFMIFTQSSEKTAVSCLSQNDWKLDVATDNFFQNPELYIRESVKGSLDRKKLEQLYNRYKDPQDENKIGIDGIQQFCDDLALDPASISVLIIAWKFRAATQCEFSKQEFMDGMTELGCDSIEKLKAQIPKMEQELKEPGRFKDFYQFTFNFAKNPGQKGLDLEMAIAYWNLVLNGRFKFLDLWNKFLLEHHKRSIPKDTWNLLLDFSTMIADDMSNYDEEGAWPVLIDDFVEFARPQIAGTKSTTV
Sequence of PRMT1 C109 (Q99873) (Q99873 whole entry): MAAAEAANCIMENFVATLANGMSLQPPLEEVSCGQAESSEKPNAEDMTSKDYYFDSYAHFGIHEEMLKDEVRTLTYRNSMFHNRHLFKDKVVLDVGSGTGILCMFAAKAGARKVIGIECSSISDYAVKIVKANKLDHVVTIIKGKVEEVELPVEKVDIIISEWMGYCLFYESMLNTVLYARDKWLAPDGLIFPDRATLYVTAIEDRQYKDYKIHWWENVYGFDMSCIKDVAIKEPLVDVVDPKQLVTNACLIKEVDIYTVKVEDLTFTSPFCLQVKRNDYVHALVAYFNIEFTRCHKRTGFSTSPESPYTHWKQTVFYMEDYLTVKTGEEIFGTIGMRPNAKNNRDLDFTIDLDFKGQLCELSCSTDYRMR

isoTOP-ABPP reactivity ratio, P09211_C48 (GSTP1 C48 (P09211); 500 μm, in-vitro_ramos): 1.4
isoTOP-ABPP reactivity ratio, P09211_C48 (GSTP1 C48 (P09211); 500 μm, in-vitro_ramos_231): 1.9
isoTOP-ABPP reactivity ratio, Q96GG9_C115 (DCUN1D1 C115 (Q96GG9)): 0.9
isoTOP-ABPP reactivity ratio, Q15084_C190 (PDIA6 C190 (Q15084); 500 μm, in-vitro_ramos): 20.0
isoTOP-ABPP reactivity ratio, Q15084_C190 (PDIA6 C190 (Q15084); 500 μm, in-vitro_ramos_231): 20.0
isoTOP-ABPP reactivity ratio, O14980_C34 (XPO1 C34 (O14980); 500 μm, in-vitro_ramos): 1.0
isoTOP-ABPP reactivity ratio, O14980_C34 (XPO1 C34 (O14980); 500 μm, in-vitro_ramos_231): 1.2
isoTOP-ABPP reactivity ratio, Q99873_C109 (PRMT1 C109 (Q99873); 500 μm, in-vitro_ramos): 1.8
isoTOP-ABPP reactivity ratio, Q99873_C109 (PRMT1 C109 (Q99873); 500 μm, in-vitro_ramos_231): 1.7
isoTOP-ABPP reactivity ratio, P63244_C182 (GNB2L1 C182 (P63244); in-vitro_ramos_231): 1.9
isoTOP-ABPP reactivity ratio, Q6L8Q7_C108 (PDE12 C108 (Q6L8Q7); 500 μm, in-vitro_ramos): 1.9
isoTOP-ABPP reactivity ratio, Q6L8Q7_C108 (PDE12 C108 (Q6L8Q7); 500 μm, in-vitro_ramos_231): 2.5
isoTOP-ABPP reactivity ratio, P16455_C150 (MGMT C150 (P16455)): 20.0
SMILES: CC(C)(C)c1cc(NC(=O)CCl)on1 [compound 32]

isoTOP-ABPP ratio (reactivity profile), P09211_C48 (GSTP1 C48 (P09211); 500 μm in-vitro ramos): 0.9
isoTOP-ABPP ratio (reactivity profile), Q96GG9_C115 (DCUN1D1 C115 (Q96GG9); 500 μm in-vitro ramos): 0.9
isoTOP-ABPP ratio (reactivity profile), Q15084_C190 (PDIA6 C190 (Q15084); 500 μm in-vitro ramos): 0.9
isoTOP-ABPP ratio (reactivity profile), O14980_C34 (XPO1 C34 (O14980); 500 μm in-vitro ramos): 0.9
isoTOP-ABPP ratio (reactivity profile), Q99873_C109 (PRMT1 C109 (Q99873); 500 μm in-vitro ramos): 0.9
isoTOP-ABPP ratio (reactivity profile), P63244_C182 (GNB2L1 C182 (P63244); 500 μm in-vitro ramos): 1.0
isoTOP-ABPP ratio (reactivity profile), Q6L8Q7_C108 (PDE12 C108 (Q6L8Q7); 500 μm in-vitro ramos): 1.1
isoTOP-ABPP ratio (reactivity profile), P16455_C150 (MGMT C150 (P16455)): 0.9
SMILES: O=C(/C=C/c1ccccc1)Nc1cc(C(F)(F)F)cc(C(F)(F)F)c1 [compound 26]

isoTOP-ABPP reactivity ratio, P09211_C48 (GSTP1 C48 (P09211); 500 μm, in-vitro_ramos): 1.2
isoTOP-ABPP reactivity ratio, Q96GG9_C115 (DCUN1D1 C115 (Q96GG9)): 0.8
isoTOP-ABPP reactivity ratio, Q15084_C190 (PDIA6 C190 (Q15084); 500 μm, in-vitro_ramos): 1.1
isoTOP-ABPP reactivity ratio, O14980_C34 (XPO1 C34 (O14980); 500 μm, in-vitro_ramos): 0.9
isoTOP-ABPP reactivity ratio, Q99873_C109 (PRMT1 C109 (Q99873); 500 μm, in-vitro_ramos): 1.0
isoTOP-ABPP reactivity ratio, P63244_C182 (GNB2L1 C182 (P63244); in-vitro_ramos): 0.9
isoTOP-ABPP reactivity ratio, O75362_C286 (ZNF217 C286 (O75362); 500 μm, in-vitro_ramos): 0.9
isoTOP-ABPP reactivity ratio, P16455_C150 (MGMT C150 (P16455)): 1.0
SMILES: C=CC(=O)N1CCC(c2noc3ccc(F)cc23)CC1 [compound 37]

isoTOP-ABPP reactivity profile ratio, P09211_C48 (GSTP1 C48 (P09211); 500 μm, in-vitro_ramos_231): 0.9
isoTOP-ABPP reactivity profile ratio, Q15084_C190 (PDIA6 C190 (Q15084); 500 μm, in-vitro_ramos_231): 1.0
isoTOP-ABPP reactivity profile ratio, O14980_C34 (XPO1 C34 (O14980); 500 μm, in-vitro_ramos_231): 0.8
isoTOP-ABPP reactivity profile ratio, Q99873_C109 (PRMT1 C109 (Q99873); 500 μm, in-vitro_ramos_231): 0.8
isoTOP-ABPP reactivity profile ratio, Q6L8Q7_C108 (PDE12 C108 (Q6L8Q7); 500 μm, in-vitro_ramos_231): 0.8
SMILES: O=C(CCl)NC1C(O)OC(CO)C(O)C1O (mixture of isomers) [compound 44]

Second part, the compound before the results:

SMILES: O=C(CCl)NC12CC3CC(CC(C3)C1)C2 [compound 21]
isoTOP-ABPP ratio (reactivity profile), P09211_C48 (GSTP1 C48 (P09211); 500 μm in-vitro ramos): 1.3
isoTOP-ABPP ratio (reactivity profile), P09211_C48 (GSTP1 C48 (P09211); 500 μm in-vitro ramos_231): 1.1
isoTOP-ABPP ratio (reactivity profile), Q96GG9_C115 (DCUN1D1 C115 (Q96GG9); 500 μm in-vitro ramos): 1.0
isoTOP-ABPP ratio (reactivity profile), Q96GG9_C115 (DCUN1D1 C115 (Q96GG9); 500 μm in-vitro ramos_231): 1.0
isoTOP-ABPP ratio (reactivity profile), Q15084_C190 (PDIA6 C190 (Q15084); 500 μm in-vitro ramos): 2.3
isoTOP-ABPP ratio (reactivity profile), Q15084_C190 (PDIA6 C190 (Q15084); 500 μm in-vitro ramos_231): 1.1
isoTOP-ABPP ratio (reactivity profile), O14980_C34 (XPO1 C34 (O14980); 500 μm in-vitro ramos): 1.2
isoTOP-ABPP ratio (reactivity profile), O14980_C34 (XPO1 C34 (O14980); 500 μm in-vitro ramos_231): 0.9
isoTOP-ABPP ratio (reactivity profile), Q99873_C109 (PRMT1 C109 (Q99873); 500 μm in-vitro ramos): 1.5
isoTOP-ABPP ratio (reactivity profile), Q99873_C109 (PRMT1 C109 (Q99873); 500 μm in-vitro ramos_231): 1.1
isoTOP-ABPP ratio (reactivity profile), P63244_C182 (GNB2L1 C182 (P63244); 500 μm in-vitro ramos): 0.9
isoTOP-ABPP ratio (reactivity profile), P63244_C182 (GNB2L1 C182 (P63244); 500 μm in-vitro ramos_231): 0.9
isoTOP-ABPP ratio (reactivity profile), O75362_C286 (ZNF217 C286 (O75362)): 0.9
isoTOP-ABPP ratio (reactivity profile), P16455_C150 (MGMT C150 (P16455)): 17.2

SMILES: CC(Cl)C(=O)Nc1cc(C(F)(F)F)cc(C(F)(F)F)c1 (centres unmarked) [compound 25]
isoTOP-ABPP ratio (reactivity profile), P09211_C48 (GSTP1 C48 (P09211); 500 μm in-vitro ramos_231): 1.8
isoTOP-ABPP ratio (reactivity profile), Q15084_C190 (PDIA6 C190 (Q15084); 500 μm in-vitro ramos_231): 1.0
isoTOP-ABPP ratio (reactivity profile), O14980_C34 (XPO1 C34 (O14980); 500 μm in-vitro ramos_231): 0.9
isoTOP-ABPP ratio (reactivity profile), Q99873_C109 (PRMT1 C109 (Q99873); 500 μm in-vitro ramos_231): 1.0
isoTOP-ABPP ratio (reactivity profile), P63244_C182 (GNB2L1 C182 (P63244); 500 μm in-vitro ramos_231): 1.2
isoTOP-ABPP ratio (reactivity profile), O75362_C286 (ZNF217 C286 (O75362)): 20.0
isoTOP-ABPP ratio (reactivity profile), Q6L8Q7_C108 (PDE12 C108 (Q6L8Q7); 500 μm in-vitro ramos_231): 0.8

SMILES: O=C(CCl)N1CCN(S(=O)(=O)c2ccccc2F)CC1 [compound 10]
isoTOP-ABPP ratio, P09211_C48 (GSTP1 C48 (P09211); 231): 1.4
isoTOP-ABPP ratio, P09211_C48 (GSTP1 C48 (P09211); ramos): 0.8
isoTOP-ABPP ratio, Q96GG9_C115 (DCUN1D1 C115 (Q96GG9); 231): 1.3
isoTOP-ABPP ratio, Q96GG9_C115 (DCUN1D1 C115 (Q96GG9); ramos): 1.0
isoTOP-ABPP ratio, Q15084_C190 (PDIA6 C190 (Q15084); 500 μM, invitro, ramos): 3.3
isoTOP-ABPP ratio, O14980_C34 (XPO1 C34 (O14980); 231): 1.2
isoTOP-ABPP ratio, O14980_C34 (XPO1 C34 (O14980); ramos): 0.7
isoTOP-ABPP ratio, Q99873_C109 (PRMT1 C109 (Q99873); 231): 2.3
isoTOP-ABPP ratio, Q99873_C109 (PRMT1 C109 (Q99873); ramos): 1.3
isoTOP-ABPP ratio, P63244_C182 (GNB2L1 C182 (P63244); 231): 1.1
isoTOP-ABPP ratio, P63244_C182 (GNB2L1 C182 (P63244); ramos): 1.1
isoTOP-ABPP ratio O75362_C286 (ZNF217 C286 (O75362); 500 μM, invitro, 231): 1.1
isoTOP-ABPP ratio, P16455_C150 (MGMT C150 (P16455); 500 μM, invitro, ramos): 20.0
